In ChEMBL document CHEMBL1201862, “PubChem BioAssay data set” (2004):
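Grown in 96-well plates, cells were treated for 48 hours with each compound at five concentrations. Insufficient inhibition: endpoint recorded as highest concentration tested. GI50 = concentration required for 50% inhibition of growth.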 The source made the active and inactive calls. Cut-off read from the data, not from the text of the source: active = GI50 up to about 1.1 µM and inactive = higher.

Key:
Assay in all cases: inhibition of tumour cell growth, NCI panel, 48 h
[1] = test system: MOLT-4
[2] = test system: SNB-75
[3] = test system: OVCAR-4
[4] = test system: MDA-N
[5] = test system: HL-60
[6] = test system: U-251
[7] = test system: NCI-H23
[8] = test system: 786-0
[9] = test system: NCI-H522
[10] = test system: HCT-15
[11] = test system: Hs-578T
[12] = test system: SK-OV-3
[13] = test system: PC-3
[14] = test system: HOP-92
[15] = test system: HOP-62
[16] = test system: SF-539
[17] = test system: KM12
[18] = test system: OVCAR-8
[19] = test system: NCI-H226
[20] = test system: SW-620
[21] = test system: TK-10
[22] = test system: A549
[23] = test system: CAKI-1
[24] = test system: LOX IMVI
[25] = test system: IGROV-1
[26] = test system: OVCAR-3
[27] = test system: HT-29
[28] = test system: UACC-257
[29] = test system: ACHN
[30] = test system: SK-MEL-2
[31] = test system: SF-268
[32] = test system: NCI/ADR-RES
[33] = test system: RPMI-8226
[34] = test system: NCI-H460
[35] = test system: MDA-MB-435
[36] = test system: UO-31
[37] = test system: A498
[38] = test system: OVCAR-5
[39] = test system: BT-549
[40] = test system: HCT-116
[41] = test system: Malme-3M
[42] = test system: SF-295
[43] = test system: SN12C
[44] = test system: SNB-19
[45] = test system: K562
[46] = test system: SK-MEL-28
[47] = test system: UACC-62
[48] = test system: RXF 393
[49] = test system: MCF7
[50] = test system: EKVX
[51] = test system: M14
[52] = test system: HCC 2998
[53] = test system: CCRF-CEM
[54] = test system: DU-145
[55] = test system: SK-MEL-5
[56] = test system: COLO 205
[57] = test system: MDA-MB-231
[58] = test system: SR

Oc1cc(O)c2ccc(-c3ccc(O)c(O)c3)[o+]c2c1
GI50 [1]: > 100 µM (inactive)
GI50 [2]: > 100 µM (inactive)
GI50 [3]: > 100 µM (inactive)
GI50 [4]: > 100 µM (inactive)
GI50 [5]: > 100 µM (inactive)
GI50 [6]: > 100 µM (inactive)
GI50 [7]: > 100 µM (inactive)
GI50 [8]: > 100 µM (inactive)
GI50 [9]: > 100 µM (inactive)
GI50 [10]: > 100 µM
GI50 [11]: > 100 µM (inactive)
GI50 [12]: > 100 µM (inactive)
GI50 [13]: > 100 µM (inactive)
GI50 [14]: > 100 µM (inactive)
GI50 [15]: > 100 µM (inactive)
GI50 [16]: > 100 µM (inactive)
GI50 [17]: > 100 µM (inactive)
GI50 [18]: > 100 µM (inactive)
GI50 [19]: > 100 µM (inactive)
GI50 [20]: > 100 µM (inactive)
GI50 [21]: > 100 µM (inactive)
GI50 [22]: > 100 µM (inactive)
GI50 [23]: > 100 µM (inactive)
GI50 [24]: > 100 µM (inactive)
GI50 [25]: > 100 µM (inactive)
GI50 [26]: > 100 µM (inactive)
GI50 [27]: > 100 µM (inactive)
GI50 [28]: > 100 µM (inactive)
GI50 [29]: > 100 µM (inactive)
GI50 [30]: > 100 µM (inactive)
GI50 [31]: > 100 µM (inactive)
GI50 [32]: > 100 µM (inactive)
GI50 [33]: 84.9 µM (inactive)
GI50 [34]: > 100 µM (inactive)
GI50 [35]: > 100 µM (inactive)
GI50 [36]: > 100 µM (inactive)
GI50 [37]: > 100 µM (inactive)
GI50 [38]: > 100 µM (inactive)
GI50 [39]: 39.9 µM (inactive)
GI50 [40]: > 100 µM (inactive)
GI50 [41]: > 100 µM (inactive)
GI50 [42]: > 10 µM (inactive)
GI50 [43]: > 100 µM (inactive)
GI50 [44]: > 100 µM (inactive)
GI50 [45]: > 100 µM (inactive)
GI50 [46]: > 100 µM (inactive)
GI50 [47]: > 100 µM (inactive)
GI50 [48]: 63.8 µM (inactive)
GI50 [49]: > 100 µM (inactive)
GI50 [50]: > 100 µM (inactive)
GI50 [51]: > 100 µM (inactive)
GI50 [52]: > 100 µM (inactive)
GI50 [53]: 67.9 µM (inactive)

O=P(O)(O)c1ccccc1Oc1ccccc1
GI50 [1]: > 100 µM (inactive)
GI50 [2]: 30.3 µM (inactive)
GI50 [54]: > 100 µM (inactive)
GI50 [4]: > 100 µM (inactive)
GI50 [55]: > 100 µM (inactive)
GI50 [56]: > 100 µM (inactive)
GI50 [57]: > 100 µM (inactive)
GI50 [5]: > 100 µM (inactive)
GI50 [6]: > 100 µM (inactive)
GI50 [7]: > 100 µM (inactive)
GI50 [8]: > 100 µM (inactive)
GI50 [9]: > 100 µM (inactive)
GI50 [10]: > 100 µM
GI50 [11]: > 100 µM (inactive)
GI50 [12]: > 100 µM (inactive)
GI50 [13]: > 100 µM (inactive)
GI50 [14]: > 100 µM (inactive)
GI50 [15]: > 100 µM (inactive)
GI50 [16]: > 100 µM (inactive)
GI50 [17]: > 100 µM (inactive)
GI50 [18]: > 100 µM (inactive)
GI50 [19]: > 100 µM (inactive)
GI50 [20]: > 100 µM (inactive)
GI50 [21]: > 100 µM (inactive)
GI50 [22]: > 100 µM (inactive)
GI50 [23]: > 100 µM (inactive)
GI50 [24]: > 100 µM (inactive)
GI50 [25]: > 100 µM (inactive)
GI50 [26]: > 100 µM (inactive)
GI50 [28]: > 100 µM (inactive)
GI50 [29]: > 100 µM (inactive)
GI50 [30]: > 100 µM (inactive)
GI50 [31]: > 100 µM (inactive)
GI50 [32]: > 100 µM (inactive)
GI50 [33]: > 100 µM (inactive)
GI50 [34]: > 100 µM (inactive)
GI50 [35]: > 100 µM (inactive)
GI50 [36]: > 100 µM (inactive)
GI50 [37]: 3.95 µM (inactive)
GI50 [38]: > 100 µM (inactive)
GI50 [39]: > 100 µM (inactive)
GI50 [40]: > 100 µM (inactive)
GI50 [42]: > 100 µM (inactive)
GI50 [43]: > 100 µM (inactive)
GI50 [44]: > 100 µM (inactive)
GI50 [45]: > 100 µM (inactive)
GI50 [46]: > 100 µM (inactive)
GI50 [47]: > 100 µM (inactive)
GI50 [48]: > 100 µM (inactive)
GI50 [49]: > 100 µM (inactive)
GI50 [50]: > 100 µM (inactive)
GI50 [51]: > 100 µM (inactive)
GI50 [52]: > 100 µM (inactive)
GI50 [53]: > 100 µM (inactive)

c1ccc(-c2csc3c2-n2cccc2C3N2CCCC2)cc1 (configuration not stated)
GI50 [1]: 42.3 µM (inactive)
GI50 [2]: 14.9 µM (inactive)
GI50 [3]: 34.4 µM (inactive)
GI50 [54]: 95.3 µM (inactive)
GI50 [4]: 34.4 µM (inactive)
GI50 [55]: 4.84 µM (inactive)
GI50 [56]: > 10 µM (inactive)
GI50 [57]: 35.6 µM (inactive)
GI50 [5]: 23.5 µM (inactive)
GI50 [6]: 11.1 µM (inactive)
GI50 [7]: 20.9 µM (inactive)
GI50 [8]: 58.1 µM (inactive)
GI50 [9]: 13.3 µM (inactive)
GI50 [58]: 57.7 µM (inactive)
GI50 [10]: 93.8 µM
GI50 [11]: 62.1 µM (inactive)
GI50 [13]: 32.7 µM (inactive)
GI50 [14]: 21 µM (inactive)
GI50 [15]: 26.5 µM (inactive)
GI50 [16]: 36.4 µM (inactive)
GI50 [17]: 30.7 µM (inactive)
GI50 [18]: 26.8 µM (inactive)
GI50 [19]: 85.1 µM (inactive)
GI50 [20]: 44.2 µM (inactive)
GI50 [21]: 27 µM (inactive)
GI50 [22]: 26.4 µM (inactive)
GI50 [23]: 72.3 µM (inactive)
GI50 [24]: 40.7 µM (inactive)
GI50 [25]: 21.1 µM (inactive)
GI50 [26]: 6.9 µM (inactive)
GI50 [27]: 28.2 µM (inactive)
GI50 [28]: 7.36 µM (inactive)
GI50 [29]: > 100 µM (inactive)
GI50 [30]: > 100 µM (inactive)
GI50 [31]: 13.9 µM (inactive)
GI50 [32]: > 100 µM (inactive)
GI50 [33]: 20.8 µM (inactive)
GI50 [34]: 44.4 µM (inactive)
GI50 [35]: 33.7 µM (inactive)
GI50 [36]: > 100 µM (inactive)
GI50 [37]: 76 µM (inactive)
GI50 [38]: 20.2 µM (inactive)
GI50 [39]: 3.3 µM (inactive)
GI50 [40]: 43.8 µM (inactive)
GI50 [41]: 23.9 µM (inactive)
GI50 [42]: 23.8 µM (inactive)
GI50 [43]: > 100 µM (inactive)
GI50 [44]: 19.6 µM (inactive)
GI50 [45]: 22.6 µM (inactive)
GI50 [46]: 24.7 µM (inactive)
GI50 [48]: > 100 µM (inactive)
GI50 [49]: 30.5 µM (inactive)
GI50 [50]: 13.8 µM (inactive)
GI50 [52]: 26.1 µM (inactive)
GI50 [53]: 70.1 µM (inactive)
